Here are results for 4 molecules from publication PMC10568017, “A quest for the stereo-electronic requirements for selective agonism for the neurotrophin receptors TrkA and TrkB in 17-spirocyclic-dehydroepiandrosterone derivatives” (Frontiers in Molecular Neuroscience, 2023).

For one data set, the system named is PC12 cells. Briefly: CellTox assay, survival of PC12 cells under serum deprivation. The note with it: compound 500 nM, 24 h, after 4 h serum starvation; NGF 100 ng/mL as control (Figure 9). The format is cell-based. Here is the method:
PC12 cells were obtained from LGC Promochem and cultured under specified conditions. Cells were grown in DMEM medium (Thermo Fischer Scientific, cat# 10566016) containing 10% horse serum (Thermo Fischer Scientific, cat# 16050122), 5% fetal bovine serum (Thermo Fischer Scientific, cat# 10270106), 100 units/mL penicillin, and 0.1 mg/mL streptomycin (Thermo Fischer Scientific, cat# 15140122) at 5% CO2 and 37°C. Cells were used between passages 5 and 20.
CellTox assay (G8742, Promega, Leiden, Belgium) was used to assess the survival of PC12 cells under serum deprivation conditions. PC12 cells were plated in 96-well plates, starved from serum for 4 h, and subsequently treated with NGF (100 ng/mL) or compound (500 nM) for 24 h. CellTox assay reagents and Hoescht (1:10,000, H3570, Invitrogen, Massachusetts, USA) were then added to each well for 30 min, and then, cells were imaged with a Zeiss AXIO Vert A1 fluorescent microscope. CellTox positive cells were normalized to the total number of cells for each image.
Initially, we tested compounds ENT-A002, ENT-A007, ENT-A009, ENTA025, ENT-A026, ENT-A033, ENT-A034, ENT-A035, ENT-A036, ENT-A037, ENT-A046, ENT-A047, ENT-A055, and ENT-A056 for their ability to protect PC12 cells from serum deprivation-induced cell death as well as for their ability to activate TrkA downstream pro-survival signaling kinases Akt and Erk1/2 (Figures 9A–C). We opted to employ PC12 cells, which express receptors TrkA and p75 and have been routinely used for investigating NGF-TrkA signaling. PC12 cells were subjected to a period of nutrient deprivation (without fetal bovine serum and horse serum in their culture medium) for 4 h. Following this, NGF (100 ng/mL) or one of the compounds (500 nM or 1 μM) was administered and allowed to interact with the cells for 24 h. Following that, CellTox and Hoescht dyes were added and cells were imaged to assess cell death. Control cases involved cells cultured in full medium (serum), cells under starvation conditions (serum-free), and cells under starvation conditions treated with DMSO (SF+DMSO).

The test system of data set [1] is NIH-3T3 TrkB-expressing cell line. As to the kind of experiment: CellTox Green cytotoxicity assay in NIH-3T3 cells stable transfected with TrkB under serum deprivation. The note with it: compound 1 μM, 24 h, after 24 h serum starvation; BDNF 500 ng/mL as control. Format: cell-based. Here is the method:
(§1) We tested compounds on three cellular systems, primary cortical astrocytes from 2-day-old mice (as a natively TrkB-expressing neuronal population), and NIH-3T3 fibroblasts stable transfected with TrkB and NIH-3T3 naïve cells. Cells were grown with high-glucose DMEM medium supplemented with 10% fetal bovine serum (FBS), 100 μg/mL streptomycin, and 100 units/mL penicillin at 37°C in a humidified 5% CO2 atmosphere. Phosphorylation results presented here are in primary astrocytes, and cell toxicity assay results are in NIH-3T3 stable transfected cells with TrkB.
NIH-3T3 stable transfected cells with TrkB were plated in 96-well plates at a density of 10,000 cells/well, before carrying out serum starvation for 24 h. Cells were then treated for 24 h with either BDNF at 500 ng/mL (control) or the compounds at 1 μM.
(§2) For the cell toxicity assay, we used CellTox™ Green Dye (2,000 × , Promega) for the visualization of dead cells and Hoechst 33,342 solution (10,000 × ) for total cells. A ZEISS Axio Vert.A1 microscope was used for image capture, and the ImageJ software (https://imagej.nih.gov/ij/) was used for analysis. The number of CellTox positive cells was normalized against the total number of cells observed in each image.
The NIH-3T3 TrkB cell line, which is stable and transfected to specifically express the TrkB receptor, was used for the screening of the new compounds for their ability to protect cells from serum deprivation-induced apoptosis through the activation of the TrkB receptor. Cell death was induced by serum deprivation for 24 h and then BDNF (500 ng/mL), the native neurotrophin ligand of the TrkB receptor, or compounds ENT-A007, ENT-A009, ENTA025, ENT-A026, ENT-A033, ENT-A034, ENT-A035, ENT-A036, ENT-A037, ENT-A046, ENT-A047, ENT-A055, and ENT-A056 (1 μM) were added to the media for 24 h.

A further data set concerns the target T1, TrkB (Mus musculus, UniProt P15209).
T1 construct: primary cortical astrocytes from 2-day-old mice (as a natively TrkB-expressing neuronal population); endogenous in cells; host or cells: primary cortical astrocytes from C57B/6 mouse pups (P2)
As to the kind of experiment: TrkB phosphorylation assay in primary astrocytes (Western blot). The format is cell-based. The note with it: compound 1 μM, 20 min, after 6 h serum starvation, BDNF 500 ng/mL as control. Here is the method:
as §1
Cells were plated in 12 well plates, at a density of 100,000 cells per well, with 6 h of serum deprivation carried out on the following day. To assess the effect of compounds on TrkB phosphorylation, 20-min treatments were applied, using either BDNF at 500 ng/mL (Peprotech 450-02) (positive control) or compounds at 1 μM.
Cell lysis for 10 min was carried out on ice using the Pierce IP Lysis Buffer by Thermo Scientific and a phospho-protease inhibitor cocktail by Millipore. After adding loading buffer (5 × Laemni), 25 μg from each protein sample were incubated for 5 min at 95°C and subjected to SDS-PAGE. Proteins were transferred to a nitrocellulose membrane at 350 mA for 2 h. Membrane blocking was performed using 5% bovine serum albumin (BSA) at room temperature for 1 h, before adding the primary antibodies to the blocking solution at 4°C overnight. HRP-conjugated secondary antibodies were used for the detection of chemiluminescence with ECL solution. Primary antibodies: Phospho-TrkB (Tyr816) Millipore # ABN1381, and Anti-TrkB Abcam #ab33655.
Mixed glial cultures were isolated from the cortex of C57B/6 pups at post-natal day 2 (P2). Cells were plated in a medium containing high-glucose DMEM, 200 U/mL penicillin, 200 μg/mL streptomycin, and 10% fetal bovine serum (FBS). When cells reach 100% confluency (7–8 days), the anti-mitotic agent Ara-C was added in the media at a final concentration of 10 μM, for 3 to 4 days to target the highly proliferative microglial cells. Ara-C was removed, and primary astrocytes (97% purity) were cultured at 5% CO2 and 37°C.
Cells were plated at 70–80% confluency. The next day, they were deprived of serum for 6 h and subsequently treated with 500 ng/mL BDNF or 1 μM of compounds for 20 min. Cells were then lysed in Pierce™ IP Lysis Buffer (87788, Thermo Fischer Scientific, Rockford, USA), containing proteases (539138, Calbiochem, Darmstadt, Germany), and phosphatase inhibitors (524629, Calbiochem, Darmstadt, Germany). Lysates were then suspended in an SDS loading buffer and subjected to Western blot against phosphorylated TrkB (1:1,000, ABN1381, Sigma-Aldrich, St. Louis, MO, USA) and total TrkB (1:1,000, 07-225-I, Sigma-Aldrich, St. Louis, MO, USA).

A further data set has as its system NIH3T3 naive cells. Briefly: CellTox assay in NIH3T3 naive cells under serum deprivation. Format: cell-based. Particulars: compound 1 μM or BDNF 500 ng/mL, 24 h, after 18 h nutrient deprivation. Here is the method: as §1, §2
These cells were treated with the compounds, or BDNF, for 24 h under starvation conditions. Control conditions included cells cultured with serum, serum-free conditions, and serum-free conditions supplemented with DMSO. The cells were subjected to a period of 18 h of nutrient deprivation before the treatments. […] Therefore, we infer that the involvement of the TrkB receptor is indeed essential for the cell-protective effects of ENT-A076, ENT-A087, and ENT-A088 (Figures 14A, B).

Data set [2] in a line: Metabolic stability in pooled human liver microsomes. The note with it: 1 μM; for residual of time zero: pooled human liver microsomes 0.5 mg/mL, t = 60 min, NADPH; for parent structure loss (depletion) class: pooled human liver microsomes, 60 min. Format: in vitro ADME. Here is the method:
For metabolic stability assessment, pooled human liver microsomes were employed at 0.5 mg/mL. Incubation conditions were optimized to ensure linear metabolite formation with respect to protein concentration and reaction time. All test compounds were assessed at 1 μM based on our ADMET standard operating procedures and protocols, also published previously (1 μM was selected based on our ADMET standard operating procedures and protocols also published previously) (Rogdakis et al., [2022]; Yilmaz et al., [2022]). Approximately 1 mM of NADPH served as a cofactor. Reactions took place in triplicates at 37°C. Negative and positive controls (low vs. rapid clearance) were included for low vs. rapid clearance. After 60 min, reactions were terminated.
Parent structure loss is classified as very slow (<5%), slow (5–19%), moderate (20–50%), fast (50–80%), or very fast (>80%). Such categories have been defined according to set criteria, namely, high metabolism (t1/2 value of <30 min), moderate metabolism (30 min <t1/2 value of <60 min), and low metabolism (t1/2 value of >60 min) (EMA, [2012], [2013]; FDA, [2020]).

T1 sequence (P15209 32-821): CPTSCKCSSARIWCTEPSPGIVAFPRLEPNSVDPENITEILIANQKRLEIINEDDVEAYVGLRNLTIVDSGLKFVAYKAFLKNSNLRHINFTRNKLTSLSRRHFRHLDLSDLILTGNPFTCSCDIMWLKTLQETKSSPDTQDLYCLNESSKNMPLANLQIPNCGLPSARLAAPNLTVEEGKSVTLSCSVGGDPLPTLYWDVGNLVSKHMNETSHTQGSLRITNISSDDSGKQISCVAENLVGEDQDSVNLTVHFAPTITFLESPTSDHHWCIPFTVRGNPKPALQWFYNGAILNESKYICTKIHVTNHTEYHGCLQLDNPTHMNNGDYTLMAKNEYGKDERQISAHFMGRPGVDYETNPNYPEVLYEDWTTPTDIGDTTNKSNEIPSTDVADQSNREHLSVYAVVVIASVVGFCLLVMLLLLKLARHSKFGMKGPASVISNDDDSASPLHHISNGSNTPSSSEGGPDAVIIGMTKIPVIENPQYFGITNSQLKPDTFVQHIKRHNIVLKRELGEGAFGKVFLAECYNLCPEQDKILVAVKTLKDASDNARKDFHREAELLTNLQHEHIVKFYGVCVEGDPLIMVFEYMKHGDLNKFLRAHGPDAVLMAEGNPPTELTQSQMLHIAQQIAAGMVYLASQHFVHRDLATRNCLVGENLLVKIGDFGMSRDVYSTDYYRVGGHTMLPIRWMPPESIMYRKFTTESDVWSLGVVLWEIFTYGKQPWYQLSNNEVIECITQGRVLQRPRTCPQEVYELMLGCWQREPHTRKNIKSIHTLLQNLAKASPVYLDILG

For the molecule `CN(C)Cc1cn(CC2=CC[C@@]3(CC[C@H]4[C@@H]5CC=C6C[C@@H](O)CC[C@]6(C)[C@H]5CC[C@@]43C)OC2)nn1` [ENT-A046, (3S,17R)-5′-[(4-((dimethylamino)methyl)-1H-1,2,3-triazol-1-yl)methyl]-3′,6′-dihydrospiro[5-androstene-17,2′-pyran]-3-ol], the “protection of PC12 cells from serum deprivation-induced cell death (CellTox)” value in the data set on PC12 cells is given as “without showing any antiapoptotic activity in PC12 cells”. The “protection of NIH-3T3-TrkB cells from serum deprivation-induced cell death (CellTox)” value (shortened to “protection of NIH-3T3-TrkB cells”) in data set [1] is given as “significantly reduce cell death levels compared to the serum-free control, comparable to the BDNF action”. Moreover, the “phosphorylation levels of the TrkB receptor” value on TrkB is “only ENT-A009 and ENT-A055 successfully increased phosphorylation levels of the TrkB receptor”.
In the case of `C[C@]12CC[C@H](O)CC1=CC[C@@H]1[C@@H]2CC[C@@]2(C)[C@H]1CCC21CC(=O)C1` [ENT-A076, (3S)-3-hydroxy-spiro[5-androsten-17-cyclobutan]-3′-one], in data set [1], the “protection of NIH-3T3-TrkB cells” value is “demonstrated the ability to promote cell survival during serum starvation as well as BDNF”. The “rescue of NIH3T3 naive cells (no neurotrophin receptors) from serum deprivation-induced cell death (CellTox)” value with NIH3T3 naive cells is recorded as “neither the compounds nor BDNF were able to rescue the cells from cell death”. Further, in data set [2], the “residual of time zero” value is recorded as 95% and the “parent structure loss (depletion) class” value is “slow (slow (5–19%))”.
For `COC(=O)C=C1CC2(CC[C@H]3[C@@H]4CC=C5C[C@@H](O)CC[C@]5(C)[C@H]4CC[C@@]32C)C1` (stereo partly drawn) [ENT-A087], the “protection of NIH-3T3-TrkB cells” value in data set [1] is on record as “demonstrated the ability to promote cell survival during serum starvation as well as BDNF”. Moreover, the “rescue of NIH3T3 naive cells (no neurotrophin receptors) from serum deprivation-induced cell death (CellTox)” value in the data set with NIH3T3 naive cells is reported as “neither the compounds nor BDNF were able to rescue the cells from cell death”. For the same molecule, in data set [2], the “residual of time zero” value is listed as above 95% and the “parent structure loss (depletion) class” value is recorded as “very slow (very slow (<5%))”.

B1: brain-derived neurotrophic factor (protein, UniProt P23560 19-247, looked up)
Neurotrophic factor BDNF …: APMKEANIRGQGGLAYPGVRTHGTLESVNGPKAGSRGLTSLADTFEHVIEELLDEDQKVRPNEENNKDADLYTSRVMLSSQVPLEPPLLFLLEEYKNYLDAANMSMRVRRHSDPARRGELSVCDSISEWVTAADKKTAVDMSGGTVTVLEKVPVSKGQLKQYFYETKCNPMGYTKEGCRGIDKRHWNSQCRTTQSYVRALTMDSKKRIGWRFIRIDTSCVCTLTIKRGR
notes: native neurotrophin ligand of the TrkB receptor, positive control at 500 ng/mL
Regarding B1, the “rescue of NIH3T3 naive cells (no neurotrophin receptors) from serum deprivation-induced cell death (CellTox)” value in the data set on NIH3T3 naive cells is on record as “neither the compounds nor BDNF were able to rescue the cells from cell death”.
